Results as given in patent US10294202B2, “Pyrrolidinones as herbicides” (FMC Corporation, priority 2013, dated 2019).

Tests used:
nightshade = experiment: Test C pre-/postemergence herbicide test; assay type: in vivo, Solanum ptycanthum; conditions: Preemergence
Excerpt: (§1) Seeds of plant species selected from blackgrass (Alopecurus myosuroides), ryegrass, Italian (Italian ryegrass, Lolium multiflorum), wheat (winter wheat, Triticum aestivum), galium (catchweed bedstraw, Galium aparine), corn (Zea mays), crabgrass, large (large crabgrass, Digitaria sanguinalis), foxtail, giant (giant foxtail, Setaria faberii), johnsongrass (Sorghum halepense), lambsquarters (Chenopodium album), morningglory (Ipomoea coccinea), nutsedge, yellow (yellow nutsedge, Cyperus esculentus), pigweed (Amaranthus retroflexus), ragweed (common ragweed, Ambrosia elatior), soybean (Glycine max), barnyardgrass (Echinochloa crus-galli), oilseed rape (Brassica napus), waterhemp (common waterhemp, Amaranthus rudis), kochia (Kochia scoparia), oat, wild (wild oat, Avena fatua), surinam grass (Brachiaria decumbens), foxtail, green (green foxtail, Setaria viridis), goosegrass (Eleusine indica), bromegrass, downy (downy bromegrass, Bromus tectorum), nightshade (eastern black nightshade, Solanum ptycanthum), cocklebur (common cocklebur, Xanthium strumarium), cupgrass, woolly (woolly cupgrass, Eriochloa villosa), bermudagrass (Cynodon dactylon), sunflower, (common oilseed sunflower, Helianthus annuus), Russian thistle (Salsola kali) and velvetleaf (Abutilon theophrasti) were planted into a blend of loam soil and sand and treated preemergence with test chemicals formulated in a non-phytotoxic solvent mixture which included a surfactant. At the same time, plants selected from these crop and weed species and also barley (winter barley, Hordeum vulgare), […]), chickweed (common chickweed, Stellaria media), deadnettle (henbit deadnettle, Lamium amplexicaule), and canarygrass (littleseed canarygrass, Phalaris minor) were planted in pots containing Redi-Earth® planting medium (Scotts Company, 14111 Scottslawn Road, Marysville, Ohio 43041) comprising spaghnum peat moss, vermiculite, wetting agent and starter nutrients and treated with postemergence applications of test chemicals formulated in the same manner. Plants ranged in height from 2 to 18 cm (1- to 4-leaf stage) for postemergence treatments. Treated plants and controls were maintained in a greenhouse for 13 to 15 days, after which time all species were compared to controls and visually evaluated. Plant response ratings, summarized in Table C, are based on a scale of 0 to 100 where 0 is no effect and 100 is complete control. A dash (-) response means no test result.

foxtail, green = experiment: Test C pre-/postemergence herbicide test; assay type: in vivo, Setaria viridis; conditions: Preemergence; for Foxtail, Green plant response rating: 31 g ai/ha
Excerpt: as §1

bromegrass, downy = experiment: Test C pre-/postemergence herbicide test; assay type: in vivo, Bromus tectorum; conditions: Preemergence; for Bromegrass, Downy plant response rating: 31 g ai/ha
Excerpt: as §1

surinam grass = experiment: Test C pre-/postemergence herbicide test; assay type: in vivo, Brachiaria decumbens; conditions: Preemergence
Excerpt: as §1

cocklebur = experiment: Test C pre-/postemergence herbicide test; assay type: in vivo, Xanthium strumarium; conditions: Preemergence; for Plant response rating, Cocklebur: scale 0 to 100 (0 no effect, 100 complete control)
Excerpt: as §1

goosegrass = experiment: Test C pre-/postemergence herbicide test; assay type: in vivo, Eleusine indica; conditions: Preemergence; for Goosegrass plant response rating: 31 g ai/ha
Excerpt: as §1

bermudagrass = experiment: Test C pre-/postemergence herbicide test; assay type: in vivo, Cynodon dactylon; conditions: Preemergence; for Bermudagrass plant response rating: 31 g ai/ha
Excerpt: as §1

sunflower = experiment: Test C pre-/postemergence herbicide test; assay type: in vivo, Helianthus annuus; conditions: Preemergence
Excerpt: as §1

cupgrass, woolly = experiment: Test C pre-/postemergence herbicide test; assay type: in vivo, Eriochloa villosa; conditions: Preemergence; for Cupgrass, Woolly plant response rating: 31 g ai/ha
Excerpt: as §1

mustard, wild = experiment: Test D pre-/postemergence herbicide test; assay type: in vivo, Sinapis arvensis; conditions: Preemergence; for Plant response rating, Mustard, Wild: scale 0 to 100 (0 no effect, 100 complete control)
Excerpt: (§2) Seeds of plant species selected from bluegrass (annual bluegrass, Poa annua), blackgrass (Alopecurus myosuroides), canarygrass (littleseed canarygrass, Phalaris minor), chickweed (common chickweed, Stellaria media), galium (catchweed bedstraw, Galium aparine), bromegrass, downy (downy bromegrass, Bromus tectorum), field poppy (Papaver rhoeas), field violet (Viola arvensis), foxtail, green (green foxtail, Setaria viridis), deadnettle (henbit deadnettle, Lamium amplexicaule), ryegrass, Italian (Italian ryegrass, Lolium multiflorum), kochia (Kochia scoparia), lambsquarters (Chenopodium album), oilseed rape (Brassica napus), pigweed (Amaranthus retroflexus), chamomile (scentless chamomile, Matricaria inodora), Russian thistle (Salsola kali), speedwell (bird's-eye speedwell, Veronica persica), barley, spring (spring barley, Hordeum vulgare), wheat, spring (spring wheat, Triticum aestivum), buckwheat, wild (wild buckwheat, Polygonum convolvulus), mustard, wild (wild mustard, Sinapis arvensis), oat, wild (wild oat, Avena fatua), radish, wild (wild radish, Raphanus raphanistrum), […]), barley, winter (winter barley, Hordeum vulgare), and wheat, winter (winter wheat, Triticum aestivum) were planted into a silt loam soil and treated preemergence with test chemicals formulated in a non-phytotoxic solvent mixture which included a surfactant. At the same time, these species were planted in pots containing Redi-Earth® planting medium (Scotts Company, 14111 Scottslawn Road, Marysville, Ohio 43041) comprising spaghnum peat moss, vermiculite, wetting agent and starter nutrients and treated with postemergence applications of the test chemicals formulated in the same manner. Plants ranged in height from 2 to 18 cm (1- to 4-leaf stage). Treated plants and controls were maintained in a controlled growth environment for 7 to 21 days after which time all species were compared to controls and visually evaluated. Plant response ratings, summarized in Table D, are based on a scale of 0 to 100 where 0 is no effect and 100 is complete control. A dash (-) response means no test result.

wheat, winter = experiment: Test D pre-/postemergence herbicide test; assay type: in vivo, Triticum aestivum; conditions: Preemergence, scale 0 to 100 (0 no effect, 100 complete control)
Excerpt: as §2

wheat, spring = experiment: Test D pre-/postemergence herbicide test; assay type: in vivo, Triticum aestivum; conditions: Preemergence, scale 0 to 100 (0 no effect, 100 complete control)
Excerpt: as §2

[1] = 125 g ai/ha, scale 0 to 100 (0 no effect, 100 complete control)
[2] = scale 0 to 100 (0 no effect, 100 complete control)
[3] = 250 g ai/ha, scale 0 to 100 (0 no effect, 100 complete control)
[4] = 31 g ai/ha, scale 0 to 100, 0 is no effect and 100 is complete control
[5] = scale 0 to 100, 0 is no effect and 100 is complete control

`O=C1NCC(c2ccc(Cl)c(F)c2)C1C(=O)Nc1ccccc1F` (centres unmarked) [Compound 53] was tested, and the “Plant response rating, Nightshade” value (nightshade; 62 g ai/ha, scale 0 to 100) was 0, the “Plant response rating, Nightshade” value (nightshade; [1]) was 40 and the “Foxtail, Green plant response rating” value (foxtail, green; [2]) was 30. The “Plant response rating, Foxtail, Green” value (foxtail, green; 62 g ai/ha, scale 0 to 100) was 90, the “Plant response rating, Foxtail, Green” value (foxtail, green; [1]) was 90 and the “Plant response rating, Foxtail, Green” value (foxtail, green; [3]) was 90. For the same compound, the “Bromegrass, Downy plant response rating” value (bromegrass, downy; [2]) was 0, the “Plant response rating, Bromegrass, Downy” value (bromegrass, downy; 62 g ai/ha, scale 0 to 100) was 0 and the “Plant response rating, Bromegrass, Downy” value (bromegrass, downy; [1]) was 0. The “Plant response rating, Bromegrass, Downy” value (bromegrass, downy; [3]) was 0, the “Plant response rating, Surinam Grass” value (surinam grass; 62 g ai/ha, scale 0 to 100) was 25 and the “Plant response rating, Surinam Grass” value (surinam grass; [1]) was 75. The “Plant response rating, Cocklebur” value (cocklebur; 125 g ai/ha) was 5, the “Plant response rating, Cocklebur” value (cocklebur; 250 g ai/ha) was 5 and the “Goosegrass plant response rating” value (goosegrass; [2]) was 0. For the same compound, the “Plant response rating, Goosegrass” value (goosegrass; 62 g ai/ha, scale 0 to 100) was 10, the “Plant response rating, Goosegrass” value (goosegrass; [1]) was 30 and the “Bermudagrass plant response rating” value (bermudagrass; [2]) was 40. The “Plant response rating, Bermudagrass” value (bermudagrass; 62 g ai/ha, scale 0 to 100) was 40, the “Plant response rating, Bermudagrass” value (bermudagrass; [1]) was 50 and the “Plant response rating, Bermudagrass” value (bermudagrass; [3]) was 50. The “Plant response rating Sunflower” value (sunflower; 62 g ai/ha, scale 0 to 100) was 15, the “Plant response rating Sunflower” value (sunflower; [1]) was 20 and the “Cupgrass, Woolly plant response rating” value (cupgrass, woolly; [2]) was 35. The “Plant response rating, Cupgrass, Woolly” value (cupgrass, woolly; 62 g ai/ha, scale 0 to 100) was 65, the “Plant response rating, Cupgrass, Woolly” value (cupgrass, woolly; [1]) was 80 and the “Plant response rating, Cupgrass, Woolly” value (cupgrass, woolly; [3]) was 80.

With `O=C1NCC(c2cccc(OC(F)(F)F)c2)C1C(=O)Nc1cccc(F)c1F` (centres unmarked) [Compound 68] the “Nightshade plant response rating” value (nightshade; [4]) was 10, the “Plant response rating, Nightshade” value (nightshade; 62 g ai/ha, scale 0 to 100) was 50 and the “Plant response rating, Nightshade” value (nightshade; [1]) was 55. The “Foxtail, Green plant response rating” value (foxtail, green; [5]) was 90, the “Plant response rating, Foxtail, Green” value (foxtail, green; 62 g ai/ha, scale 0 to 100) was 90 and the “Plant response rating, Foxtail, Green” value (foxtail, green; [1]) was 95. For the same compound, the “Plant response rating, Foxtail, Green” value (foxtail, green; [3]) was 95, the “Bromegrass, Downy plant response rating” value (bromegrass, downy; [5]) was 0 and the “Plant response rating, Bromegrass, Downy” value (bromegrass, downy; 62 g ai/ha, scale 0 to 100) was 0. For the same compound, the “Plant response rating, Bromegrass, Downy” value (bromegrass, downy; [1]) was 0, the “Plant response rating, Bromegrass, Downy” value (bromegrass, downy; [3]) was 0 and the “Surinam Grass plant response rating” value (surinam grass; [4]) was 40. The “Plant response rating, Surinam Grass” value (surinam grass; 62 g ai/ha, scale 0 to 100) was 75, the “Plant response rating, Surinam Grass” value (surinam grass; [1]) was 75 and the “Cocklebur plant response rating” value (cocklebur; [4]) was 15. The “Goosegrass plant response rating” value (goosegrass; [5]) was 55, the “Plant response rating, Goosegrass” value (goosegrass; 62 g ai/ha, scale 0 to 100) was 75 and the “Plant response rating, Goosegrass” value (goosegrass; [1]) was 80. The “Bermudagrass plant response rating” value (bermudagrass; [5]) was 30, the “Plant response rating, Bermudagrass” value (bermudagrass; 62 g ai/ha, scale 0 to 100) was 50 and the “Plant response rating, Bermudagrass” value (bermudagrass; [1]) was 85. For the same compound, the “Plant response rating, Bermudagrass” value (bermudagrass; [3]) was 85, the “Sunflower plant response rating” value (sunflower; [4]) was 0 and the “Plant response rating Sunflower” value (sunflower; 62 g ai/ha, scale 0 to 100) was 0. The “Plant response rating Sunflower” value (sunflower; [1]) was 10, the “Cupgrass, Woolly plant response rating” value (cupgrass, woolly; [5]) was 75 and the “Plant response rating, Cupgrass, Woolly” value (cupgrass, woolly; 62 g ai/ha, scale 0 to 100) was 75. For the same compound, the “Plant response rating, Cupgrass, Woolly” value (cupgrass, woolly; [1]) was 85 and the “Plant response rating, Cupgrass, Woolly” value (cupgrass, woolly; [3]) was 90.

`O=C1NCC(c2cccc(C(F)(F)F)c2)C1C(=O)Nc1cccc(F)c1F` (centres unmarked) [Compound 241] was tested, and the “Plant response rating, Mustard, Wild” value (mustard, wild; 31 g ai/ha) was 10, the “Plant response rating, Mustard, Wild” value (mustard, wild; 62 g ai/ha) was 15 and the “Plant response rating, Mustard, Wild” value (mustard, wild; 125 g ai/ha) was 15. The Plant response rating (mustard, wild; 250 g ai/ha, Mustard, Wild, scale 0 to 100) was 25, the “Plant response rating, Wheat, Winter” value (wheat, winter; 31 g ai/ha) was 0 and the “Plant response rating, Wheat, Winter” value (wheat, winter; 62 g ai/ha) was 5. The “Plant response rating, Wheat, Winter” value (wheat, winter; 125 g ai/ha) was 10, the “Plant response rating, Wheat, Winter” value (wheat, winter; 250 g ai/ha) was 25 and the “Plant response rating, Wheat, Spring” value (wheat, spring; 31 g ai/ha) was 0. The “Plant response rating, Wheat, Spring” value (wheat, spring; 62 g ai/ha) was 0, the “Plant response rating, Wheat, Spring” value (wheat, spring; 125 g ai/ha) was 25 and the “Plant response rating, Wheat, Spring” value (wheat, spring; 250 g ai/ha) was 40.
